SMILES strings stand for the structures.

For data set [1] the following is noted: from CCC[C@@H](C(=O)N(C)[C@H](C)C(=O)N[C@H](Cc1ccccc1)C(=O)O)N(C[C@@H](C)Oc1ccccc1CCCN)C(=O)OC(C)(C)C; amide bond; DEPBT; THF; 25.0 mM; 25.0 °C; 16.0 h.
In a further data set the test system is morphine-treated rats. The data set is described as follows: Gastric emptying and gastrointestinal transit in model of opioid-delayed gastric emptying. The class given is in vivo, rat (Sprague-Dawley). To be noted: 3 mg/kg s.c. An excerpt:
7. The Effect of Compounds of the Invention on Gastric Emptying and Gastrointestinal Transit in a Model of Opioid-Delayed Gastric Emptying
Opioid analgesics, such as morphine, are well known to delay gastrointestinal transit which is an important side-effect for this class of drugs. The clinical term for this syndrome is opioid bowel dysfunction (OBD). Importantly, patients recovering from abdominal surgery experience post-operative ileus that is further exacerbated by concomitant opioid therapy for post-surgical pain.
• 1. […] Methods • 1. Rats (male, Sprague-Dawley, 250-300 g) are implanted with jugular vein catheters to accommodate dosing of test articles. • 2. Overnight-fasted rats are administered morphine (3 mg/kg s.c.). • 3. […] Radioactivity (^99mTc) in each tissue isolate is measured as a means of measuring the transit of the meal. Results

In data set [2] the target is human ghrelin receptor (hGHS-R1a) (Homo sapiens, UniProt Q92847). Particulars: Table 4; functional (agonist) activity at human ghrelin receptor; TFA salts unless otherwise noted.
Text: B. Aequorin Functional Assay (Ghrelin Receptor)
This cell line is typically constructed by transfection of the human ghrelin receptor into CHO-K1 cells co-expressing Gα16 and the mitochondrially targeted Aequorin (Ref #ES-WT-A5). • 1. […] Assay buffer: DMEM (Dulbecco's Modified Eagles Medium) containing 0.1% BSA (bovine serum albumin; pH 7.0). • 3. Coelenterazine (Molecular Probes, Leiden, The Netherlands). Final test concentrations (N=8) for compounds of the invention: 10, 1, 0.3, 0.1, 0.03, 0.01, 0.003, 0.001 μM. Compound Handling
Assay plates were then prepared by appropriate dilution in DMEM medium containing 0.1% BSA. Under these conditions, the maximal final DMSO concentration in the assay was <0.6%.
AequoScreen™ cells were collected from culture plates with Ca^2+ and Mg^2+-free phosphate buffered saline (PBS) supplemented with 5 mM EDTA, pelleted for 2 min at 1000×g, re-suspended in DMEM—Ham's F12 containing 0.1% BSA at a density of 5×10^6 cells/mL, and incubated O/N at rt in the presence of 5 μM coelenterazinc. After loading, cells were diluted with assay buffer to a concentration of 5×10^5 cells/mL.
For agonist testing, 50 μL of the cell suspension was mixed with 50 μL of the appropriate concentration of test compound or ghrelin (reference agonist) in 96-well plates (duplicate samples). Ghrelin (reference agonist) was tested at several concentrations concurrently with the test compounds in order to validate the experiment. The emission of light resulting from receptor activation in response to ghrelin or test compounds was recorded using the Hamamatsu FDSS 6000 reader (Hamamatsu Photonics K.K., Japan).
Analysis and Expression of Results
Results were expressed as Relative Light Units (RLU). […] EC50, Hill slope and % Emax values are reported.
Key Aspects of Method • 1. Assay performed on CHO-K1 cells expressing the transfected, cloned human ghrelin receptor (hGHS-R1a) and Gα16. • 2. Suspended cells incubated O/N with coelenterazine. • 3. Stimulation of hGHS-R1a activates Gα16, causing intercellular Ca2+ release which ultimately leads to the oxidation of coelenterazine and the emission of a quantitative luminescent signal. • 4. Ghrelin was used as the positive control. • 5.
Data set [3] concerns gastric emptying in fasted rats. The data set can be described thus: Gastric emptying in fasted rats (phenol red methylcellulose meal). The class given is in vivo, rat (Wistar). Here is the method:
To examine the effects of compounds of the invention in a model for gastroparesis, compounds were evaluated for possible effects on gastric emptying in fasted rats.
GHRP-6 and test samples were dissolved in vehicle of 9% HPBCD/0.9% NaCl. Immediately following oral administration of methylcellulose (2%) containing phenol red (0.05%) (2 mL/rat), test substances or vehicle (9% HPBCD/0.9% NaCl) were each administered intravenously (i.v.) at a dosing volume of 5 mL/kg.
Male Wistar rats were provided by LASCO (A Charles River Licensee Corporation, Taiwan). Space allocation for 6 animals was 45×23×15 cm. Animals were housed in APEC® cages and maintained in a controlled temperature (22° C.-24° C.) and humidity (60%-80%) environment with 12 h light, 12 h dark cycles for at least one week in the laboratory prior to being used. Free access to standard lab chow for rats (Lab Diet, Rodent Diet, PMI Nutrition International, USA) and tap water was granted. All aspects of this work including housing, experimentation and disposal of animals were performed in general accordance with the Guide for the Care and Use of Laboratory Animals (National Academy Press, Washington, D.C., 1996).
Test substances were each administered intravenously to a group of 5 O/N-fasted Wistar derived male rats weighing 200±20 g immediately after methylcellulose (2%) containing phenol red (0.05%) was administered orally at 2 mL/animal. […] Following protein precipitation by 20% trichloroacetic acid (0.5 mL) and re-alkalization of the supernatant with 0.1 N NaOH, total phenol red remaining in the stomach was determined by a colorimetric method at 560 nm. A 30 percent or more (≧30%) increase in gastric emptying, detected as the decrease in phenol red concentration in the stomach relative to the vehicle control group, is considered significant.
• 1. […] Total phenol red remaining in the stomach was quantified by a colorimetric method at 560 nm. • 5. A >30% increase in gastric emptying, detected based on the phenol red concentration in comparison to the control group, is considered significant. […]

Chain of human ghrelin receptor (hGHS-R1a) (Q92847 whole entry): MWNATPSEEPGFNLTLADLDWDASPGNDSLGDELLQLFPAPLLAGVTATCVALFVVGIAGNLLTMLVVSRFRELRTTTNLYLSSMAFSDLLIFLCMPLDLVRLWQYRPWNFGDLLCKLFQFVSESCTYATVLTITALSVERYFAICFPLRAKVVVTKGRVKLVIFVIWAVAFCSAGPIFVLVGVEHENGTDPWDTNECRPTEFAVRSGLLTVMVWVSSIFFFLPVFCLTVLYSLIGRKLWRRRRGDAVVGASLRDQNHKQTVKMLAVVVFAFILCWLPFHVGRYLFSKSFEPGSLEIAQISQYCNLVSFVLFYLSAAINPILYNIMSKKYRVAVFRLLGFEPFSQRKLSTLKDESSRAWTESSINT

The molecule `CCC[C@H]1C(=O)N(C)[C@H](C)C(=O)N[C@H](Cc2ccccc2)C(=O)NCCCc2ccccc2O[C@H](C)CN1C(=O)OC(C)(C)C` yielded a ring closure, yield of all isomers in data set [1] of 80%.

With `CN1CC[C@]23c4c5ccc(O)c4O[C@H]2[C@@H](O)C=C[C@H]3[C@H]1C5` [Morphine], the “gastric emptying and intestinal transit” value with morphine-treated rats was “significantly delayed gastric emptying and intestinal transit”.

As for `CCC(C)C1NCCOc2ccccc2CCCNC(=O)C(Cc2ccc(Cl)cc2)NC(=O)C(C)N(C)C1=O` (centres unmarked) [compound 25], in data set [2], the EC50 (usually the concentration at which the effect is half-maximal) is 0.001 to 0.1 µM. In addition, in data set [3] (30 μg/kg), the gastric emptying result is “demonstrated gastric emptying”. In addition, the “increase in gastric emptying relative to the vehicle control group” value in data set [3] (100 μg/kg i.v., fasted rats, 15 min) turned out to be 39%.

The record behind these values is patent publication USRE42013E1, “Macrocyclic modulators of the ghrelin receptor” (Tranzyme Pharma Inc., priority 2003, dated 2010).
